Patent US5786371A, “Pyridine and pyridazine derivatives, processes for the production thereof and pharmaceutical agents containing these compounds” (Boehringer Mannheim GmbH, priority 1995, dated 1998)
pIC50: −log10 of the molar value. Read-outs that look alike come from different tables or passages of the source.

Molecular target: GpIIb/IIIa receptor (Homo sapiens, UniProt P05106+P08514)
Experiment: GpIIb/IIIa-Fibrinogen-Elisa (inhibition of fibrinogen-GpIIb/IIIa interaction)
Type: binding
Settings: 1 hour incubation, optical density at 405 nm
Description: Microtitre plates are coated overnight with 2 μg/ml isolated activated GpIIb/IIIa receptor. After removing the unbound receptor by washing several times, the surface of the plates is blocked with 1% casein and washed again. The test substance is added in the required concentrations and the plates are incubated for 10 minutes while shaking. The natural ligand of the gpIIb/IIIa receptor, fibrinogen, is added. After 1 hour of incubation the unbound fibrinogen is removed by washing several times and the bound fibrinogen is determined by a peroxidase-conjugated anti-fibrinogen monoclonal antibody by measuring the optical density at 405 nm in an ELISA instrument. Inhibition of a fibrinogen-GpIIb/IIIa interaction results in a low optical density. An IC50 is calculated based on a concentration-effect curve.
The GpIIb/IIIa-Fibrinogen-Elisa is a modification of assays described in the following literature:
Nachman, R. L. & Leung, L. L. K. (1982): Complex formation of platelet membrane glycoproteins IIb and IIIa with fibrinogen. J. Clin. Invest. 69:263-269. Wright, P. S. et al. (1993): An echistatin C-terminal peptide activated GpIIbIIIa binding to fibrinogen, fibronectin, vitronectin and collagen type I and type IV. Biochem. J. 293:263-267.

[1] = isolated activated GpIIb/IIIa receptor on microtitre plates, read-out: IC50

Sequence of GpIIb/IIIa receptor (P08514 32-887 limits assumed): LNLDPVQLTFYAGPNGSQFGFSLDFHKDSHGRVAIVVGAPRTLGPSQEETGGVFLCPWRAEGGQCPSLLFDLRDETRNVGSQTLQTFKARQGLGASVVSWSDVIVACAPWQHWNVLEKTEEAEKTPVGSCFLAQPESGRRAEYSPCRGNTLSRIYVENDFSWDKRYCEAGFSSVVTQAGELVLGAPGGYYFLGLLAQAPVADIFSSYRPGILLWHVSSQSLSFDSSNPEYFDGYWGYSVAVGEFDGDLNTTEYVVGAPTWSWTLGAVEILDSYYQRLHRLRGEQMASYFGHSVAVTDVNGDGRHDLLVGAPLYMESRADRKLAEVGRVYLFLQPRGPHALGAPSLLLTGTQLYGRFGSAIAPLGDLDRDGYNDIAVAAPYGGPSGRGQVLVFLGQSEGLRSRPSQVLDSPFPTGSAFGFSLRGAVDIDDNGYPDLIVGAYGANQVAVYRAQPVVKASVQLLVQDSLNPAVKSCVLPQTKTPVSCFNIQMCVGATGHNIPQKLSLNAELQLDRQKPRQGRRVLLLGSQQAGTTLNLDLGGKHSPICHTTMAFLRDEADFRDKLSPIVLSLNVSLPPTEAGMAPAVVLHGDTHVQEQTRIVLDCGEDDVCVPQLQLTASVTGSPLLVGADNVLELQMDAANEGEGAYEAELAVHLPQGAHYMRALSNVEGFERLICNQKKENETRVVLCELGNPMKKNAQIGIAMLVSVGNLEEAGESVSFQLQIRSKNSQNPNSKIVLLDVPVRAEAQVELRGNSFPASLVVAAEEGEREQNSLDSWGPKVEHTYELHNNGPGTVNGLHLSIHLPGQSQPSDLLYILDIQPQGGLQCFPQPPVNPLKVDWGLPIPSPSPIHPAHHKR
Sequence of GpIIb/IIIa receptor (P08514 891-1039 limits assumed): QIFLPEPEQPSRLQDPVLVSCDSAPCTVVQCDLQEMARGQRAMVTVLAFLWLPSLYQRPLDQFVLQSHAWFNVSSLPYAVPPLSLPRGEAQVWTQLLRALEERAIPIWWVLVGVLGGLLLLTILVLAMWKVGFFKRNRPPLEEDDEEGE
Sequence of GpIIb/IIIa receptor (P05106 27-788): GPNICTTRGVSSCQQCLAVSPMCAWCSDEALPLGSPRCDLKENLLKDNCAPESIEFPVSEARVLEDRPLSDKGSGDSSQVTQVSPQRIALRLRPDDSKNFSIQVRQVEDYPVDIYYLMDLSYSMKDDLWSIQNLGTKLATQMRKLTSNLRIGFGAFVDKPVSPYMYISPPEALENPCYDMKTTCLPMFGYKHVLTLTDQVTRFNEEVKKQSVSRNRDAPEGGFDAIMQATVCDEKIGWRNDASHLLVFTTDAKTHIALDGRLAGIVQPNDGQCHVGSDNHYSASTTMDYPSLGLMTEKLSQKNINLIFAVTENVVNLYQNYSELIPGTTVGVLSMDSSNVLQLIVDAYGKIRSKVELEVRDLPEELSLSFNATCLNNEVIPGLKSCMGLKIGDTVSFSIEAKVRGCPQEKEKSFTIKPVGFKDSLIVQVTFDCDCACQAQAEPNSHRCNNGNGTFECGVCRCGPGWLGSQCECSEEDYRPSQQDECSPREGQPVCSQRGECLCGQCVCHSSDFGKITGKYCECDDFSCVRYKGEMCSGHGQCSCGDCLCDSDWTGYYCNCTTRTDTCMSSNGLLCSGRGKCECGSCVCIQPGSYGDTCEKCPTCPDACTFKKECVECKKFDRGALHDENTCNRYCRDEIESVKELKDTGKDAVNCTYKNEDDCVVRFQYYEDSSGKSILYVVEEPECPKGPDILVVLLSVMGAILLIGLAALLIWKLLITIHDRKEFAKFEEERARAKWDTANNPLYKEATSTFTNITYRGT

| pIC50 [1] | pIC50 (reference substance, isolated activated GpIIb/IIIa receptor, read-out: IC50 value in the above assay (comparative experiments)) | Compound |
| --- | --- | --- |
| 6.70 |  | O=C(O)CC1(O)CCC(N2CCC(CCCNc3ccncc3)CC2)CC1 (stereo not shown) [12 (page 35), (1-Hydroxy-4-{4-[3-(pyridin-4-ylamino)-propyl]-piperidin-1-yl}-cyclohexyl)-acetic acid] |
| 6.85 |  | O=C(O)CC1(O)CCC(N2CCC(Nc3ccncc3)CC2)CC1 (stereo not shown) [Example 5] |
|  | 5.60 | O=C(O)CC1(O)CCC(N2CCN(c3ccncc3)CC2)CC1 (stereo not drawn) [cis-1-hydroxy-4-[4-(4-pyridyl)-piperazin-1-yl]-acetic acid, reference compound] |
| 6.52 |  | (4-{3-[(Pyridin-4-ylamino)-propyl]-piperidin-1-yl}-cyclohexyl)-acetic acid [62 (page 40)] |
